According to patent US9458181B2, “Cathepsin cysteine protease inhibitors” (Merck Sharp & Dohme Corp., priority 2013, dated 2016):

Legend:
human cathepsin F = target: T1, human cathepsin F (Homo sapiens, UniProt Q9UBX1); assay: Cathepsin F assay (hCat F); type: biochemical; conditions: human cathepsin F 10 nM, Z-Phe-Arg-AMC 8 μM, pH 5.5, 15 min preincubation; read-out: hCat F IP
T1 sequence (Q9UBX1 271-484): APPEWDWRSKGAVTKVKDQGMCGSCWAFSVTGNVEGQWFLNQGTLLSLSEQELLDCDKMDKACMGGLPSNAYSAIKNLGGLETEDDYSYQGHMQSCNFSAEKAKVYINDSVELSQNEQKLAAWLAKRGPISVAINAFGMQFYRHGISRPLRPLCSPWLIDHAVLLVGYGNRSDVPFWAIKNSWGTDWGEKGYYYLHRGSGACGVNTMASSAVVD
How it was run: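 Human cathepsin F (10 nM) in 50 mM MES pH 5.5, 2.5 mM EDTA, 2.5 mM DTT, 10% DMSO was preincubated 15 min at RT with compounds from a ⅓ DMSO dilution series (500–0.025 μM stocks). Z-Phe-Arg-AMC was added (8 μM as added), and AMC release was read by fluorescence (360/460 nm) for 20 min. Percent inhibition was fitted to a dose-response model.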

human cathepsin K = human cathepsin K (UniProt P43236); assay: Cathepsin K Assay (hrbCat K); type: biochemical; conditions: human cathepsin K 0.4 nM, Z-Leu-Arg-AMC 8 μM, pH 5.5, 15 min preincubation; read-out: hrbCat K IP
How it was run: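 Human cathepsin K (0.4 nM) in pH 5.5 MES buffer with EDTA, DTT and 10% DMSO was preincubated 15 min at room temperature with compound from a ⅓ dilution series (500-0.025 μM DMSO stocks). Z-Leu-Arg-AMC (8 μM) was then added, and AMC release was followed fluorometrically (Ex 360/Em 460 nm) for 30 min; inhibition was fitted to a dose-response model.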

## N#CC1(NC(=O)[C@@H]2CCCC[C@H]2c2oc(-c3ccccc3Cl)nc2-c2ccc(N3CCS(=O)(=O)CC3)cc2)CC1 [Example 75, (1R,2R)-2-(2-(2-chlorophenyl)-4-(4-(1,1-dioxidothiomorpholino)phenyl)oxazol-5-yl)-N-(1-cyanocyclopropyl) cyclohexanecarboxamide]
Human cathepsin F
  IC50: 0.865 µM
Human cathepsin K
  IC50: 0.00206 µM

## N#CC1(NC(=O)[C@@H]2CCCC[C@H]2c2oc(-c3ccc(C(F)(F)F)cc3)nc2-c2ccc(N3CCS(=O)(=O)CC3)cc2)CC1 [Example 65, (1R,2R)-N-(1-cyanocyclopropyl)-2-(4-(4-(1,1-dioxidothiomorpholino)phenyl)-2-(4-(trifluoromethyl)phenyl)oxazol-5-yl)cyclohexanecarboxamide]
Human cathepsin F
  IC50: 0.825 µM
Human cathepsin K
  IC50: 0.0013 µM

## N#CC(CC(F)(F)F)NC(=O)[C@@H]1CC(F)(F)CC[C@H]1c1oc(C(F)(F)C(F)(F)F)nc1-c1ccc(C(=O)N2CCOCC2)cc1 (single isomer, unassigned) [Example 142, (1R,2R)-N-((R or S)-1-cyano-3,3,3-trifluoropropyl)-5,5 - difluoro-2-(4-(4-(morpholine-4-carbonyl)phenyl)-2-(perfluoroethyl)oxazol-5-yl)cyclohexanecarboxamide]
Human cathepsin F
  IC50: 0.446 µM
Human cathepsin K
  IC50: 0.00106 µM

## CS(=O)(=O)N1CCN(C(=O)c2ccc(-c3nc(C(F)(F)C(F)(F)F)oc3[C@@H]3CCC(F)(F)C[C@H]3C(=O)NC3(C#N)CC3)cc2)CC1 [Example 140, (1R,2R)-N-(1-cyanocyclopropyl)-5,5-difluoro-2-(4-(4-(4-(methylsulfonyl)piperazine-1-carbonyl)phenyl)-2-(perfluoroethyl)oxazol-5-yl)cyclohexanecarboxamide]
Human cathepsin F
  IC50: 0.372 µM
Human cathepsin K
  IC50: 0.00193 µM

## CC1(c2nc(-c3ccc(N4CCS(=O)(=O)CC4)cc3)c([C@@H]3CCCC[C@H]3C(=O)NC3(C#N)CC3)o2)CCC(F)(F)CC1 [Example 52, (1R,2R)-N-(1-cyanocyclopropyl)-2-(2-(4,4-difluoro-1-methylcyclohexyl)-4-(4-(1,1-dioxidothiomorpholino)phenyl)oxazol-5-yl)cyclohexanecarboxamide]
Human cathepsin F
  IC50: 0.82 µM
Human cathepsin K
  IC50: 0.00251 µM

## CCC(C#N)NC(=O)[C@@H]1CCCC[C@H]1c1oc(-c2ccc(F)cc2)nc1-c1ccc(N2CCS(=O)(=O)CC2)cc1 (single isomer, unassigned) [Example 126, (1R,2R)-N-((R or S)-1-cyanopropyl)-2-(4-(4-(1,1-dioxidothiomorpholino)phenyl)-2-(4-fluorophenyl)oxazol-5-yl)cyclohexanecarboxamide]
Human cathepsin F
  IC50: 9.02 µM
Human cathepsin K
  IC50: 0.0146 µM

## CC(C)(C)c1nc(-c2ccc(N3CCS(=O)(=O)CC3)cc2)c([C@@H]2CCC(F)(F)C[C@H]2C(=O)NC2(C#N)CC2)s1 [Example 58, (1R,2R)-2-(2-(tert-butyl)-4-(4-(1,1-dioxidothiomorpholino)phenyl)thiazol-5-yl)-N-(1-cyanocyclopropyl)-5,5-difluorocyclohexane-carboxamide]
Human cathepsin F
  IC50: 0.072 µM
Human cathepsin K
  IC50: 0.00067 µM

## N#CC1(NC(=O)[C@@H]2CCCC[C@H]2c2oc(C3CCC(C(F)(F)F)CC3)nc2-c2ccc(N3CCS(=O)(=O)CC3)cc2)CC1 (mixture of isomers) [Example 111, (1R,2R)-N-(1-cyanocyclopropyl)-2-(4-(4-(1,1-dioxidothiomorpholino)phenyl)-2-((1R,4R and 1S,4S)-4-(trifluoromethyl)cyclohexyl)oxazol-5-yl)cyclohexanecarboxamide]
Human cathepsin F
  IC50: 1.06 µM
Human cathepsin K
  IC50: 0.00183 µM

## N#CC1(NC(=O)[C@@H]2CC(Cl)(Cl)CC[C@H]2c2oc(C(F)(F)C(F)(F)F)nc2-c2ccc(C(=O)N3CCOCC3)cc2)CC1 [Example 154, (1R,2R)-5,5-dichloro-N-(1-cyanocyclopropyl)-2-(4-(4-(morpholine-4-carbonyl)phenyl)-2-(perfluoroethyl)oxazol-5-yl)cyclohexanecarboxamide]
Human cathepsin F
  IC50: 0.259 µM
Human cathepsin K
  IC50: 0.00068 µM

## N#CC1(NC(=O)[C@@H]2CC3CC3C[C@H]2c2oc(-c3ccc(F)cn3)nc2-c2ccc(N3CCS(=O)(=O)CC3)cc2)CC1 (single isomer, unassigned) [Example 9, (1R,3R,4R,6S or 1S,3R,4R,6R)-N-(1-cyanocyclopropyl)-4-(4-(4-(1,1-dioxidothiomorpholino)phenyl)-2-(5-fluoropyridin-2-yl)oxazol-5-yl)bicyclo[4.1.0]heptane-3-carboxamide]
Human cathepsin F
  IC50: 1.18 µM
Human cathepsin K
  IC50: 0.00354 µM

## N#CC1(NC(=O)[C@@H]2CCC(F)(F)C[C@H]2c2oc(-c3ccc(F)cc3)nc2-c2ccc(N3CCS(=O)(=O)CC3)cc2)CC1 [Example 139, (1R,2R)-N-(1-cyanocyclopropyl)-2-(4-(4-(1,1-dioxidothiomorpholino)phenyl)-2-(4-fluorophenyl)oxazol-5-yl)-4,4-difluorocyclohexane-carboxamide]
Human cathepsin F
  IC50: 2.42 µM
Human cathepsin K
  IC50: 0.00384 µM
